This passage reports MIC results from DBAASP.

The structures appear in SMILES notation. Values after ≈ are worked out from the molar mass of the structure shown.

Test systems include Escherichia coli 1005; Candida albicans; Escherichia coli K88; Escherichia coli UB1005.
Holding throughout (assay): ≥ marks a high value that may be exact or a test limit, other limits are often not marked, values filed in µg/mL are converted to µM
Assay [1] has as its system Salmonella enterica subsp. enterica serovar Pullorum ATCC 7913.
For assay [2], the system named is Candida parapsilosis CGMCC 2.3989.
Assay [3] concerns Salmonella enterica subsp. enterica serovar Typhimurium ATCC 14028.
The test system of assay [4] is Candida tropicalis CGMCC 2.1975.
Assay [5] deals with Candida krusei CGMCC 2.1857.
For assay [6], the system named is Staphylococcus aureus ATCC 29213.
Assay [7] concerns Staphylococcus aureus ATCC 43300.
In assay [8] the test system is Staphylococcus aureus ATCC 25923.
The subject of assay [9] is Staphylococcus epidermidis ATCC 12228.
Assay [10] has as its system Lacticaseibacillus rhamnosus 1.9021.
The subject of assay [11] is Pseudomonas aeruginosa PAO1.
In assay [12] the test system is Lacticaseibacillus rhamnosus 1.0936.
The subject of assay [13] is Lacticaseibacillus rhamnosus 8014.
For assay [14], the system named is Streptococcus agalactiae BNCC 185941.
In assay [15] the test system is Lacticaseibacillus rhamnosus 1.0911.
Assay [16] relates to Salmonella enterica subsp. enterica serovar Choleraesuis CVCC 503.
Assay [17] has as its system Escherichia coli O157:H7 CICC 21530.
Assay [18] has as its system Pseudomonas aeruginosa ATCC 27853.
For assay [19], the system named is Salmonella enterica subsp. enterica serovar Pullorum C79-13.
The subject of assay [20] is Cryptococcus neoformans ATCC 32045.
Assay [21] deals with Staphylococcus aureus ATCC 33591.
In assay [22] the test system is Escherichia coli ATCC 2592.
Assay [23] has as its system Candida albicans ATCC 10231.
For assay [24], the system named is Pseudomonas aeruginosa ATCC 10145.
Assay [25] relates to Escherichia coli ATCC 25922.
Assay [26] relates to Enterococcus faecalis ATCC 29212.
For assay [27], the system named is Bacillus subtilis CMCC 63501.
Assay [28] deals with Salmonella typhimurium ATCC 7731.
Assay [29] deals with Candida albicans NCTC 3179.

The term MIC denotes the least concentration at which growth counts as inhibited. High values mean a need for much substance, low ones inhibition by little substance. Take `CC(C)C[C@H](NC(=O)[C@H](CC(C)C)NC(=O)[C@H](CCCN=C(N)N)NC(=O)[C@H](CCCN=C(N)N)NC(=O)[C@H](CC(C)C)NC(=O)[C@H](CCCN=C(N)N)NC(=O)[C@H](CCCN=C(N)N)NC(=O)[C@H](CC(C)C)NC(=O)[C@H](CC(C)C)NC(=O)[C@@H](N)CCCN=C(N)N)C(=O)N[C@@H](CCCN=C(N)N)C(N)=O` [RLLRRLRRLLR]: the MIC with Escherichia coli 1005 stood at 4 µM (≈ 6.08 µg/mL); in assay [1], 8 µM (≈ 12.2 µg/mL); against Candida albicans, 5.66 µM (≈ 8.6 µg/mL); in [2] it was 8 µM (≈ 12.2 µg/mL); in assay [3], 8 µM (≈ 12.2 µg/mL); in assay [4] it was 2 µM (≈ 3.04 µg/mL). In addition, the MIC is 4 µM (≈ 6.08 µg/mL) in [5]; 4 µM (≈ 6.08 µg/mL) in assay [6]; 8 µM (≈ 12.2 µg/mL) in assay [7]; 8 µM (≈ 12.2 µg/mL) in [8]; 4 µM (≈ 6.08 µg/mL) in assay [9].
Turning to `CC(C)C[C@H](NC(=O)[C@H](Cc1c[nH]c2ccccc12)NC(=O)[C@H](CC(C)C)NC(=O)[C@@H](NC(=O)[C@H](CC(C)C)NC(=O)[C@H](CCCCN)NC(=O)[C@@H](N)CCCCN)[C@@H](C)O)C(=O)N[C@H](C(=O)N[C@@H](CC(C)C)C(=O)N[C@@H](CCCCN)C(=O)N[C@@H](CCCCN)C(N)=O)[C@@H](C)O` [KKLTLWLTLKK], the MIC against Escherichia coli K88 is 2 µM (≈ 2.74 µg/mL); in assay [3], 128 µM (≈ 175 µg/mL); in [10] it was ≥ 32 µM; in assay [11] it was 16 µM (≈ 21.9 µg/mL); in assay [12], ≥ 32 µM; in [6] it was 32 µM (≈ 43.9 µg/mL). In addition, the MIC in assay [7] was 32 µM (≈ 43.9 µg/mL); in assay [9] it was 32 µM (≈ 43.9 µg/mL); in [13], ≥ 128 µM; in assay [14], ≥ 128 µM; in [15] it was 16 µM (≈ 21.9 µg/mL); in assay [16], 8 µM (≈ 11 µg/mL). Also, the MIC worked out at 8 µM (≈ 11 µg/mL) in assay [17], 8 µM (≈ 11 µg/mL) in [18] and 2 µM (≈ 2.74 µg/mL) in assay [19].
In the case of `C[C@H](NC(=O)[C@H](Cc1ccccc1)NC(=O)[C@@H](N)CCCCN)C(=O)N[C@@H](CCCCN)C(=O)O` [KFAK], the MIC in assay [20] is ≥ 1010 µM; in assay [21], ≥ 1010 µM; in [22] it was ≥ 507 µM; in [23], > 1010 µM; in assay [24], ≥ 1010 µM.
Turning to `NC(=O)[C@H](CCCN=C(N)N)NC(=O)[C@H](Cc1ccccc1)NC(=O)[C@H](Cc1ccccc1)NC(=O)[C@H](CCCN=C(N)N)NC(=O)[C@H](CCCN=C(N)N)NC(=O)[C@H](Cc1ccccc1)NC(=O)[C@H](CCCN=C(N)N)NC(=O)[C@H](CCCN=C(N)N)NC(=O)[C@H](Cc1ccccc1)NC(=O)[C@H](Cc1ccccc1)NC(=O)[C@@H](N)CCCN=C(N)N` [RFFRRFRRFFR], the MIC against Escherichia coli 1005 was 8 µM (≈ 13.5 µg/mL); in [1], 4 µM (≈ 6.76 µg/mL); with Candida albicans it was 5.66 µM (≈ 9.56 µg/mL); in assay [2], ≥ 64 µM; in assay [3], 4 µM (≈ 6.76 µg/mL); in assay [4] it was 2 µM (≈ 3.38 µg/mL). Also, the MIC came to 2 µM (≈ 3.38 µg/mL) in assay [5]; 8 µM (≈ 13.5 µg/mL) in assay [6]; 4 µM (≈ 6.76 µg/mL) in [7]; 4 µM (≈ 6.76 µg/mL) in [8]; 4 µM (≈ 6.76 µg/mL) in [9].
For the compound `CC(C)C[C@H](NC(=O)CNC(=O)[C@H](Cc1c[nH]c2ccccc12)NC(=O)CNC(=O)[C@H](CC(C)C)NC(=O)[C@H](CC(C)C)NC(=O)[C@H](CCCCN)NC(=O)[C@@H](N)CCCCN)C(=O)N[C@@H](CC(C)C)C(=O)N[C@@H](CCCCN)C(=O)N[C@@H](CCCCN)C(N)=O` [KKLLGWGLLKK], the MIC in the assay with Escherichia coli K88 is ≥ 64 µM; in [25] it was > 128 µM; in [3] it was > 128 µM; in [10] it was ≥ 128 µM; in [11] it was > 128 µM; in [12], ≥ 128 µM. Further, the MIC was > 128 µM in assay [6]; > 128 µM in [7]; > 128 µM in assay [9]; ≥ 128 µM in assay [13]; ≥ 128 µM in assay [14]; ≥ 128 µM in [15]. Besides, the MIC was ≥ 128 µM in assay [16], ≥ 128 µM in [17], > 128 µM in [18] and ≥ 64 µM in assay [19].
For `CC[C@H](C)[C@H](N)C(=O)N[C@@H](Cc1cnc[nH]1)C(=O)N[C@@H](CCCCN)C(=O)N[C@@H](Cc1ccccc1)C(=O)N[C@@H](Cc1c[nH]c2ccccc12)C(=O)N[C@@H](CCCN=C(N)N)C(=O)N[C@@H](CCCN=C(N)N)C(=O)N[C@@H](Cc1c[nH]c2ccccc12)C(=O)N[C@@H](Cc1ccccc1)C(=O)N[C@@H](CCCCN)C(=O)N[C@@H](Cc1cnc[nH]1)C(=O)N[C@H](C(N)=O)[C@@H](C)CC` [IHKFWRRWFKHI], the MIC in [25] was 16 µM (≈ 28.1 µg/mL); in assay [26], 16 µM (≈ 28.1 µg/mL); in assay [6], 8 µM (≈ 14 µg/mL); in assay [7], 16 µM (≈ 28.1 µg/mL); in assay [27], ≥ 32 µM; in assay [9], 16 µM (≈ 28.1 µg/mL). Further, the minimal inhibitory concentration (MIC) in the assay with Escherichia coli UB1005 came to 8 µM (≈ 14 µg/mL); in [18], 16 µM (≈ 28.1 µg/mL); in assay [19], 16 µM (≈ 28.1 µg/mL); in assay [28], 16 µM (≈ 28.1 µg/mL).
Regarding `CC[C@H](C)[C@H](NC(=O)[C@H](CCCCN)NC(=O)[C@@H](NC(=O)[C@@H](NC(=O)[C@H](CO)NC(=O)[C@H](CC(N)=O)NC(=O)[C@@H](NC(=O)[C@H](CC(N)=O)NC(=O)[C@@H](N)CCCCN)C(C)C)[C@@H](C)CC)C(C)C)C(=O)N[C@@H](CCC(N)=O)C(=O)N[C@@H](C)C(=O)N[C@@H](Cc1ccccc1)C(=O)N[C@@H](Cc1ccccc1)C(=O)N[C@@H](CCCN=C(N)N)C(=O)N[C@@H](C)C(=O)N[C@@H](CCCN=C(N)N)C(=O)N[C@@H](CCCCN)C(=O)N[C@@H](C)C(=O)N[C@@H](CCC(N)=O)C(=O)N[C@@H](CC(=O)O)C(=O)N[C@@H](CC(=O)O)C(=O)N[C@@H](Cc1ccc(O)cc1)C(=O)N[C@@H](CCCN=C(N)N)C(=O)O` [KNVNSIVKIQAFFRARKAQDDYR], the MIC in [29] was 30.3 µM (≈ 84 µg/mL); in assay [25], 3.54 µM (≈ 9.8 µg/mL); in assay [8], 4.7 µM (≈ 13 µg/mL).
Consider `C[C@H](NC(=O)[C@H](CCCCN)NC(=O)[C@H](CCCCN)NC(=O)[C@H](CCCCN)NC(=O)[C@H](C)NC(=O)[C@H](CCCCN)NC(=O)[C@H](CCCCN)NC(=O)[C@H](CCCCN)NC(=O)[C@H](C)NC(=O)[C@H](CCCCN)NC(=O)[C@H](CCCCN)NC(=O)[C@H](CCCCN)NC(=O)[C@H](C)NC(=O)[C@H](CCCCN)NC(=O)[C@H](CCCCN)NC(=O)[C@H](CCCCN)NC(=O)[C@H](C)NC(=O)[C@H](CCCCN)NC(=O)[C@H](CCCCN)NC(=O)[C@H](CCCCN)NC(=O)[C@H](C)NC(=O)[C@H](CCCCN)NC(=O)[C@H](CCCCN)NC(=O)[C@H](CCCCN)NC(=O)[C@H](C)NC(=O)[C@H](CCCCN)NC(=O)[C@@H](N)CCCCN)C(=O)N[C@@H](CCCCN)C(=O)O` [KKAKKKAKKKAKKKAKKKAKKKAKKKAK], for which the minimum inhibitory concentration (MIC) in assay [20] is 19.6 µM (≈ 63 µg/mL); in assay [22], 13.7 µM (≈ 43.8 µg/mL); in assay [23], > 78 µM; in assay [24], ≥ 39 µM.
